# From patent US20140030808A1, “Method for Cellular RNA Expression” (BIONTECH AG, priority 2010, published 2014)
# Read-outs that look alike come from different tables or passages of the source.
# Tested on: Primary human foreskin fibroblasts (BJ, CCD1079Sk, HFF)
# Assay type: cell-based
# Conditions: 2 μM; for luciferase expression after transient treatment: BJ and CCD1079SK
compound,measurement,setting,value
Nc1ncc2[nH]cnc2n1 [2-aminopurine],luciferase expression after transient treatment,7 h incubation period,did not results in a significant increase of luciferase expression
same,luciferase expression after transient treatment,24 h treatment,rapidly reversed after removal of the inhibitors
same,luciferase expression after transient treatment,48 h treatment,less efficient than a permanent treatment
same,duration of high luciferase expression levels,permanent inhibition,5 days
